# Assay results from ChEMBL document CHEMBL5696441 (Nat Chem Biol, 2011).
# Columns and labels:
# [1] = target: Tyrosine-protein kinase ABL1 (Homo sapiens) (UniProt P00519); test: Inhibition of ABL1 (unknown origin) assessed as remaining activity at 1 uM by Kinome scan method relative to control
# [2] = target: Cyclin-dependent kinase 11B (Homo sapiens) (UniProt P21127); test: Inhibition of CDC2L1 (unknown origin) assessed as remaining activity at 1 uM by Kinome scan method relative to control
# [3] = target: T1, Ephrin type-B receptor 4 (Homo sapiens) (UniProt P54760); test: Inhibition of EPHB4 (unknown origin) assessed as remaining activity at 1 uM by Kinome scan method relative to control
# T1 sequence (whole entry): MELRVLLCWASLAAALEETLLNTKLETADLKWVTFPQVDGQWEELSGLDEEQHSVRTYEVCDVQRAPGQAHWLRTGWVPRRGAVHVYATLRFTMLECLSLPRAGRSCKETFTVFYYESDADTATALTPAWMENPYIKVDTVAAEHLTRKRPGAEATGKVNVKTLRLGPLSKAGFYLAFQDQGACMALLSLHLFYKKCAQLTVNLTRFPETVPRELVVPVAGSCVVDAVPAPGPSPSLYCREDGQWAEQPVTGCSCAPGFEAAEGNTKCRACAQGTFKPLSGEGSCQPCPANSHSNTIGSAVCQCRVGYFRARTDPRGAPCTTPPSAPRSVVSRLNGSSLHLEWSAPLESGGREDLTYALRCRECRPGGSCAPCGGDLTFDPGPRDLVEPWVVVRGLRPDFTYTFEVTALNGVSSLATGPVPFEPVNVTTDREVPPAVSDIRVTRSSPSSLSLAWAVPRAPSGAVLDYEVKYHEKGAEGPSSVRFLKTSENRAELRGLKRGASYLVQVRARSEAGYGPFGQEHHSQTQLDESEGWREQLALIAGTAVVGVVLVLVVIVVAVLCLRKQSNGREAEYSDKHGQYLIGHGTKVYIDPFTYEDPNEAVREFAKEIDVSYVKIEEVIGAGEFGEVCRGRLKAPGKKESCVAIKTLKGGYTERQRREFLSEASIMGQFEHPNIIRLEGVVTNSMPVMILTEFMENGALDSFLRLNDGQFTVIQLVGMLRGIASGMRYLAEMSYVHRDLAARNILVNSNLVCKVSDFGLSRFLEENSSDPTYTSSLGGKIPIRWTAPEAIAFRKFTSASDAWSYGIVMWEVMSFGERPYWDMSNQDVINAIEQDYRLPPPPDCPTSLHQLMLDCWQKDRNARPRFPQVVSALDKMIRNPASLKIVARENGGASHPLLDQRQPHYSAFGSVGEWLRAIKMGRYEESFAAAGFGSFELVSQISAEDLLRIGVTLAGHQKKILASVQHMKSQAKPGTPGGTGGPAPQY
# [4] = target: T2, Muscle, skeletal receptor tyrosine-protein kinase (Homo sapiens) (UniProt O15146); test: Inhibition of MUSK (unknown origin) assessed as remaining activity at 1 uM by Kinome scan method relative to control
# T2 sequence (whole entry): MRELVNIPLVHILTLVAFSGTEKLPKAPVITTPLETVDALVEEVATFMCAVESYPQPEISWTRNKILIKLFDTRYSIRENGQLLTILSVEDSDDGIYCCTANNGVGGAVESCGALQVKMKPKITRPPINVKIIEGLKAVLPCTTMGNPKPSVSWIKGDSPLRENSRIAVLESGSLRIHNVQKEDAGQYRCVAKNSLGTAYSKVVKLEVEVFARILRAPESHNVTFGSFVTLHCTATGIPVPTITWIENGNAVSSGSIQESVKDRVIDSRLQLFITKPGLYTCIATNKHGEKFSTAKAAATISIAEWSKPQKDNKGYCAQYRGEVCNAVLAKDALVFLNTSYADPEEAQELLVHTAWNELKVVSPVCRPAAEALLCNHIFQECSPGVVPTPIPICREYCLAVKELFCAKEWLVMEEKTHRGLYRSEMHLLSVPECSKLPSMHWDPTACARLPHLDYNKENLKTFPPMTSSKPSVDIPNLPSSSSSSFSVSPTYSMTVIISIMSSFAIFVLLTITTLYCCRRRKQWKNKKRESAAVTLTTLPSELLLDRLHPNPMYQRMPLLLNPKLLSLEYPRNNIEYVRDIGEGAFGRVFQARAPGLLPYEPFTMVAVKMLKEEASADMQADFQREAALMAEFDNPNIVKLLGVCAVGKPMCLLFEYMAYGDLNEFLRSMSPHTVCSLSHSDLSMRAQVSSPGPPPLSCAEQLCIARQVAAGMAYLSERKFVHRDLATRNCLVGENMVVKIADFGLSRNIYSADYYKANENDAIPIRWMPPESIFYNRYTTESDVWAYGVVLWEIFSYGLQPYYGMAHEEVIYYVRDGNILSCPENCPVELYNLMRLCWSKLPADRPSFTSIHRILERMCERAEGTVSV
# [5] = target: Myosin light chain kinase, smooth muscle (Homo sapiens) (UniProt Q15746); test: Inhibition of MYLK (unknown origin) assessed as remaining activity at 1 uM by Kinome scan method relative to control
# Myosin light chain kinase, smooth muscle (Homo sapiens), sequence (Q15746 whole entry): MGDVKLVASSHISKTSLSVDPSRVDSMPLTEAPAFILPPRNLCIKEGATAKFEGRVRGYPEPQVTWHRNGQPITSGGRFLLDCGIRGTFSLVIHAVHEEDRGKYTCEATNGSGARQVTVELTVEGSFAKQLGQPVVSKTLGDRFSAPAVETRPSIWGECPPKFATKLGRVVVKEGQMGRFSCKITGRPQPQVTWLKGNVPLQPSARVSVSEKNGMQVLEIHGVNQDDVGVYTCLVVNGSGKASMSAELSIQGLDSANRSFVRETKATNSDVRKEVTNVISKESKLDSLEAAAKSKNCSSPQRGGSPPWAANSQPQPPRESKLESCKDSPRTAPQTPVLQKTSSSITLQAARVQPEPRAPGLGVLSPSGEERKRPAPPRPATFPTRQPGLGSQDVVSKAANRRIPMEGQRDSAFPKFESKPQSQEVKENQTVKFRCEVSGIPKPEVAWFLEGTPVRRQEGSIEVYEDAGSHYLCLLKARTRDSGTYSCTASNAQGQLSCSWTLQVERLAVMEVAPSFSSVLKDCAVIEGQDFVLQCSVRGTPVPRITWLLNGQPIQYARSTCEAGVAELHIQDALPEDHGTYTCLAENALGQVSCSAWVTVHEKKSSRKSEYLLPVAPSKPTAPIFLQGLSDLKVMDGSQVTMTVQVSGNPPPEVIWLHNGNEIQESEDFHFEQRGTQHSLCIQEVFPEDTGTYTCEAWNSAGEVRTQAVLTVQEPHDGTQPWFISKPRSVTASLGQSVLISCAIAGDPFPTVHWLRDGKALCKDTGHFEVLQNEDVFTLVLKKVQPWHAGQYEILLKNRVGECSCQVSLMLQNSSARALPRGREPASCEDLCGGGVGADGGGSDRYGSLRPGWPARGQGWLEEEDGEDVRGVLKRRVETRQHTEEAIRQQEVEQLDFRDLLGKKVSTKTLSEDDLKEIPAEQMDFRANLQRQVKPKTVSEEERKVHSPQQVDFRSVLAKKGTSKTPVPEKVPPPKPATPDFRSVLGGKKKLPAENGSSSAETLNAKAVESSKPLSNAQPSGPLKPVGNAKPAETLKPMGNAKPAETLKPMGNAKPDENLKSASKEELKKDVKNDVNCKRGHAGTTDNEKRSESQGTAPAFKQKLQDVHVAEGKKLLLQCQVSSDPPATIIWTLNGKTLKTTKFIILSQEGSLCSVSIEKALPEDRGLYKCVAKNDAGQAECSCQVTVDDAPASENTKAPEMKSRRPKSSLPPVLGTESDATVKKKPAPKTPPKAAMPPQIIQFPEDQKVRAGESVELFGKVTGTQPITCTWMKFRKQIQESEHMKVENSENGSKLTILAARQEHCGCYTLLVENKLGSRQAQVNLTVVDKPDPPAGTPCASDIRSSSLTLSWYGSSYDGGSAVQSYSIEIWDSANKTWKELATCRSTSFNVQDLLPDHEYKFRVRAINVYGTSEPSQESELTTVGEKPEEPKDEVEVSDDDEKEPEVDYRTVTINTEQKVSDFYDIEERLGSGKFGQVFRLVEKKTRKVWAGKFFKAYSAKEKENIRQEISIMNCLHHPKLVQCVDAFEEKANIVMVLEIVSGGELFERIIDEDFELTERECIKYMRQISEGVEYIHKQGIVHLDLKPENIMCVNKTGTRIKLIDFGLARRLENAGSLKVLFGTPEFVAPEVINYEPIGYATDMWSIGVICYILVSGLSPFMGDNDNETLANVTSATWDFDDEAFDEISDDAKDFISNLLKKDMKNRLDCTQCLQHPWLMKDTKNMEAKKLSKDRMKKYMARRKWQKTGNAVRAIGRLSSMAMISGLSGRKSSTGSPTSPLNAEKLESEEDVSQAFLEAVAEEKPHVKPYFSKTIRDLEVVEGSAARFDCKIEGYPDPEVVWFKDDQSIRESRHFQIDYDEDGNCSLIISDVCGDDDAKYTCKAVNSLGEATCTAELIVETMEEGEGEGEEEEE
# [6] = target: Mitogen-activated protein kinase 11 (Homo sapiens) (UniProt Q15759); test: Inhibition of P38beta (unknown origin) assessed as remaining activity at 1 uM by Kinome scan method relative to control
# Mitogen-activated protein kinase 11 (Homo sapiens), sequence (Q15759 whole entry): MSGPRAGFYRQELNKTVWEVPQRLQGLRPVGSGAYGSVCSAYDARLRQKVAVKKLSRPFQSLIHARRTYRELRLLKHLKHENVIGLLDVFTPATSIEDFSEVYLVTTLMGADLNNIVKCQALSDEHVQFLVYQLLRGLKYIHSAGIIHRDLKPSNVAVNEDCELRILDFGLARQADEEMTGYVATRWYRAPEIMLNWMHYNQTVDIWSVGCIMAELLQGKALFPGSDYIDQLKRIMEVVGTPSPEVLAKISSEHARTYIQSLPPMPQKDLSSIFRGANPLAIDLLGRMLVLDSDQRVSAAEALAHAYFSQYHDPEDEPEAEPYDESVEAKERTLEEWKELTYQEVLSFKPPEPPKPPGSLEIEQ
# [7] = target: T3, cGMP-dependent protein kinase 1 (Homo sapiens) (UniProt Q13976); test: Inhibition of PRKG1 (unknown origin) assessed as remaining activity at 1 uM by Kinome scan method relative to control
# T3 sequence (whole entry): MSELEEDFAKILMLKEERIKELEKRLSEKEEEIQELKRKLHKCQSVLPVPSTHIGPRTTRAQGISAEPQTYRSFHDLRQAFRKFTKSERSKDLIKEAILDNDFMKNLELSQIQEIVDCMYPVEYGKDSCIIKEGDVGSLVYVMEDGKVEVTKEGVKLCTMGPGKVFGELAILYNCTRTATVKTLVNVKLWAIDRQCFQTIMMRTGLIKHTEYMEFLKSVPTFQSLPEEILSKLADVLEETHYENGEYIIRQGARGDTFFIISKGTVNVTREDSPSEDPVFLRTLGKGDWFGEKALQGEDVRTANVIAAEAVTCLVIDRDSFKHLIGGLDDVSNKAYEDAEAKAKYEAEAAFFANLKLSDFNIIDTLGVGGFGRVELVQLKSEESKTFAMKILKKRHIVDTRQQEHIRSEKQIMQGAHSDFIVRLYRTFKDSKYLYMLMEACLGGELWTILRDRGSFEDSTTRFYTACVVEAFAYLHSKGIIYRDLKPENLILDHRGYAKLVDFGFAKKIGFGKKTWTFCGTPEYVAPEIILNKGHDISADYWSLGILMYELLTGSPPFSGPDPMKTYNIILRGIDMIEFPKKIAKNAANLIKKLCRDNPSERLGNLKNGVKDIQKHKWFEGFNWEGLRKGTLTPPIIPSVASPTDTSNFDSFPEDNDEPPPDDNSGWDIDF
# [8] = target: TRAF2 and NCK-interacting protein kinase (Homo sapiens) (UniProt Q9UKE5); test: Inhibition of TNIK (unknown origin) assessed as remaining activity at 1 uM by Kinome scan method relative to control
# Cyclin-dependent kinase 11B (Homo sapiens), sequence (P21127 whole entry): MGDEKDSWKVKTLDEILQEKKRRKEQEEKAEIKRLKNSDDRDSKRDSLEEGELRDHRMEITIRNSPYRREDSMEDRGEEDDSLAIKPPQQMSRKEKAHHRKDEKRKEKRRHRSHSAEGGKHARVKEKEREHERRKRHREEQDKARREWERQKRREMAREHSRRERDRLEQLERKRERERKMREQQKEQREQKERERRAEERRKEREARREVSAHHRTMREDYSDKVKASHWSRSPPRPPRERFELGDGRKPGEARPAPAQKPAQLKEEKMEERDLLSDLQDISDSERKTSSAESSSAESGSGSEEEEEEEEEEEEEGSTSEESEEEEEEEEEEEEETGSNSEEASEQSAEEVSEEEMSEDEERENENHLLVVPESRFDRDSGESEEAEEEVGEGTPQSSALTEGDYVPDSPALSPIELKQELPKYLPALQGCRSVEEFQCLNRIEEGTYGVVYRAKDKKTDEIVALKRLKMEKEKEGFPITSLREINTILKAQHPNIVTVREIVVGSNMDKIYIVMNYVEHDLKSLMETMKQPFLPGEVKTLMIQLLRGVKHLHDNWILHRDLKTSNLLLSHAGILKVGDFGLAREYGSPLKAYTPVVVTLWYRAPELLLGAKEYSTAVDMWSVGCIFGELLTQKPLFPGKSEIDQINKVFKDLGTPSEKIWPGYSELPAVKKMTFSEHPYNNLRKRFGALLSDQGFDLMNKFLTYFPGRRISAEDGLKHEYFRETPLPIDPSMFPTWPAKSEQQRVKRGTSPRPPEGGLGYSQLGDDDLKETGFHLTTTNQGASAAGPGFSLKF
# Tyrosine-protein kinase ABL1 (Homo sapiens), sequence (P00519 whole entry): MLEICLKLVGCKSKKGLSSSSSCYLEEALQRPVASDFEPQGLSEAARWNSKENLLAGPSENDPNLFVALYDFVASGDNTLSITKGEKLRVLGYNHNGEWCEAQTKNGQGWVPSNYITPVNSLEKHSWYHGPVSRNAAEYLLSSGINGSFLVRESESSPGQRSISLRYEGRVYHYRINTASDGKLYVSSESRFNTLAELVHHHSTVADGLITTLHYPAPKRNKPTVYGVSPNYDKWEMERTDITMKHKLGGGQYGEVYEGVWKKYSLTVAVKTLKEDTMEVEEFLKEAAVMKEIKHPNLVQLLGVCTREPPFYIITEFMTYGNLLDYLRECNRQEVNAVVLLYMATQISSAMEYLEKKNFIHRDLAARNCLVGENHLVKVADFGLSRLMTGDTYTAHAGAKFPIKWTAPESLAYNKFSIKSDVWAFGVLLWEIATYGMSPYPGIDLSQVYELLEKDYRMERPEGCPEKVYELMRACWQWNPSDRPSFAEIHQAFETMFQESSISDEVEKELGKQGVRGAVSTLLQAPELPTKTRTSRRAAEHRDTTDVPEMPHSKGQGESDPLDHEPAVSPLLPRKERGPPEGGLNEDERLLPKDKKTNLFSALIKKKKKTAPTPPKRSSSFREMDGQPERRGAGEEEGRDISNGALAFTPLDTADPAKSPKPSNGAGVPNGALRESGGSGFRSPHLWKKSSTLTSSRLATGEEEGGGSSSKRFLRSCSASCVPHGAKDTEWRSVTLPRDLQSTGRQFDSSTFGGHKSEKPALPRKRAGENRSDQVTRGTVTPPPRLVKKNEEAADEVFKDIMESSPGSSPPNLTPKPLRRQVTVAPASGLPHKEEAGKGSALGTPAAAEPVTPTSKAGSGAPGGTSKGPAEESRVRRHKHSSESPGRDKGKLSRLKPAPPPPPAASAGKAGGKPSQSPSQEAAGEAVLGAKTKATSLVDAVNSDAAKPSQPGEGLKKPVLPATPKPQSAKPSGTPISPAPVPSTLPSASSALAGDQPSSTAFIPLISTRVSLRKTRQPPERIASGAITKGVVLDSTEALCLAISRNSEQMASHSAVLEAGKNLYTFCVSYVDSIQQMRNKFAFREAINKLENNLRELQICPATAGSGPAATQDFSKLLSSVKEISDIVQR
Compound,Activity [1] [%],Activity [2] [%],Activity [3] [%],Activity [4] [%],Activity [5] [%],Activity [6] [%],Activity [7] [%],Activity [8] [%]
Nc1ccccc1Nc1ccc2c(c1)CCc1ccccc1C2=O,84,94,97,86,72,0.9,88,90
O=C1c2ccc(Nc3ccc(F)cc3F)cc2CCc2ccc(OC[C@H](O)CO)cc21 [Skepinone-L],94,99,100,90,97,0.15,100,93
